Source: PubChem BioAssay AID256 (DTP/NCI, 2004)
Where “and” joins values, the source holds several entries; their conditions need not be identical. Equal values may be shown once. Inconclusive results and toxic doses are left out. How the source made its calls: active means survival T/C of 150% or more; inactive means T/C below 125% in these data.

System: CD2F1 mice, L1210 leukemia ip, survival T/C
Assay: NCI In Vivo Anticancer Drug Screen. Data for tumor model L1210 Leukemia (intraperitoneal) in CD2F1 (CDF1) mice
Conditions: endpoint: mean survival time, higher = longer survival
In short: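 Each value reflects a quotient of treated over vehicle control outcomes in mice with a transplanted tumor.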

[1] = dose: 12.5 mg/kg/injection, schedule: Q01DX005 (ip), vehicle: other
[2] = dose: 100.0 mg/kg/injection, schedule: Q04DX002 (ip), vehicle: saline with Tween-80
[3] = dose: 200.0 mg/kg/injection, schedule: Q04DX002 (ip), vehicle: saline with Tween-80
[4] = dose: 400.0 mg/kg/injection, schedule: Q04DX002 (ip), vehicle: saline with Tween-80
[5] = dose: 50.0 mg/kg/injection, schedule: Q01DX009 (ip), vehicle: saline with Tween-80
[6] = dose: 100.0 mg/kg/injection, schedule: Q01DX009 (ip), vehicle: saline with Tween-80
[7] = dose: 200.0 mg/kg/injection, schedule: Q01DX009 (ip), vehicle: saline with Tween-80
[8] = dose: 12.5 mg/kg/injection, schedule: Q01DX009 (ip), vehicle: saline with Tween-80
[9] = dose: 25.0 mg/kg/injection, schedule: Q01DX009 (ip), vehicle: saline with Tween-80
[10] = dose: 100.0 mg/kg/injection, schedule: Q04DX003 (ip), vehicle: saline with Tween-80
[11] = dose: 200.0 mg/kg/injection, schedule: Q04DX003 (ip), vehicle: saline with Tween-80
[12] = dose: 400.0 mg/kg/injection, schedule: Q04DX003 (ip), vehicle: saline with Tween-80

Measured: T/C

CC1=NCCCN=C(C)C([N+](=O)[O-])C=NC(C)(C)CN=CC1[N+](=O)[O-].[Ni] (stereo not drawn)
inactive: dose: 12.5 mg/kg/injection, schedule: Q04DX002 (ip), vehicle: saline with Tween-80 97 % of control | dose: 25.0 mg/kg/injection, schedule: Q04DX002 (ip), vehicle: saline with Tween-80 97 % of control | dose: 50.0 mg/kg/injection, schedule: Q04DX002 (ip), vehicle: saline with Tween-80 93 % of control

O=C1CC=C2C3CC4N(CCC45c4cc(O)c(O)cc4N1C25)C/C3=C\CBr (stereo not drawn)
inactive: dose: 75.0 mg/kg/injection, schedule: Q01DX001 (ip), vehicle: saline 115 % of control

O=c1ccn(C2OC(CO)C3[O][Sn]([c]4ccccc4)([c]4ccccc4)[O]C32)c(=O)[nH]1 (stereo not drawn)
inactive: dose: 1.56 mg/kg/injection, schedule: Q01DX005 (ip), vehicle: other 110 % of control | dose: 3.13 mg/kg/injection, schedule: Q01DX005 (ip), vehicle: other 107 % of control | dose: 6.25 mg/kg/injection, schedule: Q01DX005 (ip), vehicle: other 98 % of control | [1] 102 % of control and 105 % of control

COC(=O)C[N+]1(C)C2CCC1CC(Cl)C2 (stereo not drawn)
inactive: dose: 12.5 mg/kg/injection, schedule: Q01DX001 (ip), vehicle: saline 109 % of control | dose: 25.0 mg/kg/injection, schedule: Q01DX001 (ip), vehicle: saline 113 % of control

CCCN1C(=O)C2C3CCC(O3)C2C1=O (stereo not drawn)
inactive: [2] 95 % of control | [3] 106 % of control | [4] 102 % of control

COC(=O)c1ccc[n+](CC(=O)c2ccccc2)c1
inactive: [5] 101 % of control | [6] 96 % of control | [7] 98 % of control

CNC(=O)Oc1cccn(C(=O)NC)c1=O
inactive: dose: 12.5 mg/kg/injection, schedule: Q01DX009 (ip), vehicle: saline 98 % of control and 101 % of control | dose: 25.0 mg/kg/injection, schedule: Q01DX009 (ip), vehicle: saline 103 % of control and 107 % of control | dose: 50.0 mg/kg/injection, schedule: Q01DX009 (ip), vehicle: saline 107 % of control and 109 % of control | dose: 75.0 mg/kg/injection, schedule: Q01DX009 (ip), vehicle: Klucel (hydroxypropylcellulose) (HPC) 112 % of control | dose: 75.0 mg/kg/injection, schedule: Q01DX009 (ip), vehicle: saline 104 % of control and 109 % of control and 112 % of control | dose: 100.0 mg/kg/injection, schedule: Q01DX009 (ip), vehicle: saline 115 % of control | dose: 150.0 mg/kg/injection, schedule: Q01DX009 (ip), vehicle: saline 113 % of control and 110 % of control

CCCCCCCCSC1=C(Cl)C(=O)C(OC)=C(OC)C1=O
inactive: dose: 1.5 mg/kg/injection, schedule: Q01DX009 (ip), vehicle: saline with Tween-80 95 % of control | dose: 3.0 mg/kg/injection, schedule: Q01DX009 (ip), vehicle: saline with Tween-80 98 % of control | dose: 3.13 mg/kg/injection, schedule: Q01DX009 (ip), vehicle: saline with Tween-80 94 % of control | dose: 6.25 mg/kg/injection, schedule: Q01DX009 (ip), vehicle: saline with Tween-80 89 % of control and 98 % of control | [8] 96 % of control and 104 % of control | [9] 96 % of control and 102 % of control

NC(=O)C(CCCCC(C(N)=O)C(N)=O)C(N)=O
inactive: [2] 96 % of control | [3] 108 % of control | [4] 108 % of control

COc1cc2cc3cc4cc(OC)c(OC)cc4c(C)[n+]3cc2cc1OC (tested in a mixture with another compound)
inactive: dose: 12.5 mg/kg/injection, schedule: Q01DX009 (ip), vehicle: suspension in saline 109 % of control | dose: 25.0 mg/kg/injection, schedule: Q01DX009 (ip), vehicle: suspension in saline 110 % of control | dose: 50.0 mg/kg/injection, schedule: Q01DX009 (ip), vehicle: suspension in saline 114 % of control | dose: 100.0 mg/kg/injection, schedule: Q01DX009 (ip), vehicle: suspension in saline 107 % of control | dose: 200.0 mg/kg/injection, schedule: Q01DX009 (ip), vehicle: suspension in saline 110 % of control

Cc1ccc(C)c(C(C)NC2=NCCO2)c1 (stereo not drawn)
inactive: dose: 12.5 mg/kg/injection, schedule: Q04DX003 (ip), vehicle: saline with Tween-80 94 % of control | dose: 25.0 mg/kg/injection, schedule: Q04DX003 (ip), vehicle: saline with Tween-80 93 % of control | dose: 50.0 mg/kg/injection, schedule: Q04DX003 (ip), vehicle: saline with Tween-80 86 % of control and 92 % of control | [10] 91 % of control

N#C[SH2+].N#C[SH2+].N#C[SH2+].N#C[SH2+].[Cu+2].c1ccc(C[P+](c2ccccc2)(c2ccccc2)c2ccccc2)cc1
inactive: dose: 6.0 mg/kg/injection, schedule: Q04DX003 (ip), vehicle: saline 91 % of control | dose: 12.0 mg/kg/injection, schedule: Q04DX003 (ip), vehicle: saline 89 % of control | dose: 25.0 mg/kg/injection, schedule: Q04DX003 (ip), vehicle: saline 96 % of control

CCc1cccc(OCC(C)=O)c1
inactive: dose: 75.0 mg/kg/injection, schedule: Q01DX001 (ip), vehicle: saline with Tween-80 97 % of control | dose: 150.0 mg/kg/injection, schedule: Q01DX001 (ip), vehicle: saline with Tween-80 101 % of control | dose: 300.0 mg/kg/injection, schedule: Q01DX001 (ip), vehicle: saline with Tween-80 100 % of control

BrC1CC(Br)c2c1c1c(c3c2C(Br)CC3Br)C(Br)CC1Br (stereo not drawn)
inactive: [8] 100 % of control and 105 % of control | [9] 102 % of control and 104 % of control | [5] 104 % of control and 105 % of control | [6] 97 % of control and 108 % of control | [7] 114 % of control and 105 % of control | dose: 400.0 mg/kg/injection, schedule: Q01DX009 (ip), vehicle: saline with Tween-80 104 % of control and 105 % of control

COc1ccc(C(O)c2ccccc2C(=O)Nc2ccccc2)cc1 (stereo not drawn)
inactive: [10] 93 % of control | [11] 92 % of control | [12] 88 % of control

CCCCN1C(=O)C(=O)N(c2cc(OC)ccc2OC)C1=O
inactive: [5] 86 % of control | [6] 90 % of control | [7] 86 % of control

Cc1cc(-c2ccccc2)cc(=O)[nH]1
inactive: dose: 100.0 mg/kg/injection, schedule: Q01DX001 (ip), vehicle: other 92 % of control | dose: 200.0 mg/kg/injection, schedule: Q01DX001 (ip), vehicle: other 92 % of control | dose: 400.0 mg/kg/injection, schedule: Q01DX001 (ip), vehicle: other 91 % of control

COc1cc(OC)c(NC(=O)OCCOc2cc(C)c(Cl)c(C)c2)cc1Cl
inactive: [8] 95 % of control | [9] 95 % of control | [5] 98 % of control | [6] 88 % of control

Cc1ccc(/C=N\N=C\c2ccc(C)cc2)cc1
inactive: [10] 90 % of control | [12] 95 % of control

O=C1OCCCC1O (stereo not drawn)
inactive: dose: 150.0 mg/kg/injection, schedule: Q01DX001 (ip), vehicle: saline 97 % of control

O=c1[nH]nc(OCc2ccccc2)c2ncn(Cc3ccccc3)c12
inactive: [1] 91 % of control | dose: 100.0 mg/kg/injection, schedule: Q01DX005 (ip), vehicle: other 88 % of control | dose: 200.0 mg/kg/injection, schedule: Q01DX005 (ip), vehicle: other 86 % of control

CC(C)CC(N)C(=O)NCCCCCCCCCCNC(=O)C(N)CC(C)C (stereo not drawn)
inactive: dose: 6.25 mg/kg/injection, schedule: Q01DX010 (ip), vehicle: saline 100 % of control | dose: 12.5 mg/kg/injection, schedule: Q01DX010 (ip), vehicle: saline 113 % of control | dose: 25.0 mg/kg/injection, schedule: Q01DX010 (ip), vehicle: saline 97 % of control | dose: 50.0 mg/kg/injection, schedule: Q01DX010 (ip), vehicle: saline 91 % of control

Cc1ccc(-c2cc(-c3ccccc3)n(-c3ccccc3)n2)cc1
inactive: [10] 101 % of control | [11] 100 % of control | [12] 95 % of control

CC(N)(CCC(=O)O)C(=O)O (stereo not drawn)
inactive: [6] 96 % of control | [7] 101 % of control

O=C1C2C(c3ccccc3)=C(c3ccccc3)C1C1(c3ccccc3)C(c3ccccc3)=CC(=O)C21 (stereo not drawn)
inactive: dose: 100.0 mg/kg/injection, schedule: Q01DX001 (ip), vehicle: Klucel (hydroxypropylcellulose) (HPC) 89 % of control | dose: 200.0 mg/kg/injection, schedule: Q01DX001 (ip), vehicle: Klucel (hydroxypropylcellulose) (HPC) 93 % of control | dose: 400.0 mg/kg/injection, schedule: Q01DX001 (ip), vehicle: Klucel (hydroxypropylcellulose) (HPC) 93 % of control

Cn1c(=O)c2c(nc(Cl)n2Cc2ccccc2)n(C)c1=O
inactive: dose: 12.5 mg/kg/injection, schedule: Q01DX005 (ip), vehicle: saline with Tween-80 93 % of control | dose: 25.0 mg/kg/injection, schedule: Q01DX005 (ip), vehicle: saline with Tween-80 88 % of control | dose: 50.0 mg/kg/injection, schedule: Q01DX005 (ip), vehicle: saline with Tween-80 87 % of control | dose: 100.0 mg/kg/injection, schedule: Q01DX005 (ip), vehicle: saline with Tween-80 93 % of control
